Data on seven molecules can be found in PubChem BioAssay (NCI).

Structures are written as SMILES.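 Interpolation was linear, between the two tested concentrations surrounding the appropriate level; five concentrations were tested over 48 hours in 96-well plates. At the GI50, growth is halved. TGI: total growth inhibition.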

Among the test systems are CAKI-1 renal; HCT-116 colon; MCF7 breast; MOLT-4 leukemia; SK-MEL-5 melanoma; SK-OV-3 ovarian; U251 CNS; UACC-257 melanoma; NCI-H23 lung; NCI-H460 lung.
Holding throughout (assay): growth of human tumour cells (NCI), 48 h

As to `Clc1ccc(CO/N=C(\Cn2ccnc2)c2ccc(Cl)cc2Cl)c(Cl)c1`, the GI50 in the assay with CAKI-1 renal was 1.38 µM; with HCT-116 colon it was 1.5 µM; in the assay on MCF7 breast, 1.54 µM; with MOLT-4 leukemia it was 2.19 µM; in the assay with SK-MEL-5 melanoma, 1.63 µM; with SK-OV-3 ovarian it was 1.8 µM. For the same molecule, the GI50 in the assay on U251 CNS is 1.51 µM; in the assay with UACC-257 melanoma, 1.68 µM. Besides, the TGI in the assay on CAKI-1 renal worked out at 3.39 µM; in the assay with HCT-116 colon it was 3.19 µM; in the assay with MCF7 breast it was 3.02 µM; with MOLT-4 leukemia, 4.94 µM; in the assay on SK-MEL-5 melanoma, 3.03 µM; in the assay on SK-OV-3 ovarian it was 3.18 µM. In addition, the TGI was 2.94 µM in the assay with U251 CNS and 3.18 µM with UACC-257 melanoma.
Regarding `Cc1cc(C)nc(SC2=C(Nc3cccc(Cl)c3)C(=O)N(Cc3ccccc3)C2=O)n1`, the GI50 in the assay on CAKI-1 renal, with HCT-116 colon, in the assay with MCF7 breast, in the assay on MOLT-4 leukemia, with NCI-H23 lung and with NCI-H460 lung was > 170 µM in each case. Besides, the GI50 in the assay with SK-MEL-5 melanoma, in the assay with SK-OV-3 ovarian, in the assay on U251 CNS and in the assay on UACC-257 melanoma was > 170 µM throughout. For the same molecule, the TGI in the assay on CAKI-1 renal, in the assay on HCT-116 colon, with MCF7 breast, in the assay on MOLT-4 leukemia, in the assay on NCI-H23 lung and with NCI-H460 lung was > 170 µM throughout. Besides, the TGI with SK-MEL-5 melanoma, with SK-OV-3 ovarian, in the assay with U251 CNS and in the assay on UACC-257 melanoma was > 170 µM throughout.
As for `COc1ccc(-c2nc(-c3nc4cc(C)c(C)cc4[nH]3)cc3c2[nH]c2ccccc23)cc1`, the GI50 in the assay on CAKI-1 renal was 2.44 µM; in the assay on HCT-116 colon, 3.22 µM; in the assay on MCF7 breast, 3.22 µM; in the assay with MOLT-4 leukemia, 2.37 µM; with NCI-H23 lung, 11 µM; with NCI-H460 lung, 3.49 µM. Further, the GI50 in the assay on SK-MEL-5 melanoma is 2.9 µM; in the assay with SK-OV-3 ovarian, 13 µM; with U251 CNS it was 3.04 µM; with UACC-257 melanoma it was 3.47 µM. The TGI in the assay with CAKI-1 renal is 44.5 µM; in the assay with HCT-116 colon, 13 µM; in the assay with MCF7 breast, 59.7 µM; in the assay on MOLT-4 leukemia, 6.46 µM; in the assay with NCI-H23 lung, 68.2 µM; in the assay on NCI-H460 lung, > 100 µM. The TGI was 12.6 µM in the assay with SK-MEL-5 melanoma, 48.1 µM in the assay with SK-OV-3 ovarian, 16.6 µM in the assay with U251 CNS and 14.4 µM with UACC-257 melanoma.
`[N-]=[N+]=CC(=O)OCC(N)C(=O)O` (stereo not given): the GI50 in the assay on CAKI-1 renal was 0.429 µM; in the assay on HCT-116 colon, 0.448 µM; in the assay with MCF7 breast, 0.456 µM; in the assay with MOLT-4 leukemia it was 0.638 µM; in the assay with NCI-H23 lung it was 1.85 µM; in the assay on NCI-H460 lung, 1.27 µM. Besides, the GI50 with SK-MEL-5 melanoma is 0.563 µM; in the assay with SK-OV-3 ovarian, 0.808 µM; in the assay on U251 CNS it was 0.778 µM; in the assay on UACC-257 melanoma, 3.61 µM. For the same molecule, the TGI is > 100 µM in the assay with CAKI-1 renal; > 100 µM in the assay on HCT-116 colon; > 100 µM in the assay with MCF7 breast; > 100 µM with MOLT-4 leukemia; > 100 µM in the assay on NCI-H23 lung; 16.4 µM in the assay with NCI-H460 lung. In addition, the TGI was 14.5 µM in the assay on SK-MEL-5 melanoma, > 100 µM with SK-OV-3 ovarian, > 100 µM with U251 CNS and > 100 µM in the assay with UACC-257 melanoma.
Regarding `COC(=O)c1c2c(c(C)[n+]([O-])c1C)C(=O)C(NCc1ccc(F)c(F)c1)=CC2=O`, the GI50 with CAKI-1 renal was 2.39 µM; with HCT-116 colon, 1.65 µM; with MCF7 breast, 1.48 µM; with MOLT-4 leukemia it was 2.44 µM; in the assay on NCI-H23 lung, 1.87 µM; with NCI-H460 lung, 2.13 µM. In addition, the GI50 in the assay with SK-MEL-5 melanoma was 1.14 µM; with U251 CNS, 2.06 µM; in the assay with UACC-257 melanoma, 1.13 µM. The TGI in the assay with CAKI-1 renal stood at 10.5 µM; in the assay with HCT-116 colon, 5.71 µM; with MCF7 breast, 3.36 µM; with MOLT-4 leukemia it was 4.86 µM; with NCI-H23 lung, 4.52 µM; with NCI-H460 lung it was 10.2 µM. Further, the TGI with SK-MEL-5 melanoma is 2.38 µM; in the assay with U251 CNS, 5.85 µM; in the assay on UACC-257 melanoma, 2.96 µM.
On to `O=C(Cn1ccnc1[N+](=O)[O-])NCC(F)(F)C(F)(F)F`, for which the GI50 in the assay with CAKI-1 renal, with HCT-116 colon, in the assay on MCF7 breast, with NCI-H23 lung, in the assay on NCI-H460 lung and in the assay with SK-MEL-5 melanoma was > 100 µM in each case. Further, the GI50 with SK-OV-3 ovarian, in the assay with U251 CNS and with UACC-257 melanoma was > 100 µM each time. Also, the TGI in the assay on CAKI-1 renal, with HCT-116 colon, in the assay with MCF7 breast, in the assay on NCI-H23 lung, in the assay with NCI-H460 lung and with SK-MEL-5 melanoma was > 100 µM each time. Besides, the TGI in the assay with SK-OV-3 ovarian, with U251 CNS and in the assay on UACC-257 melanoma was > 100 µM in each case.
As for `CN1CCN(Cc2ccc(NC(=O)c3cncc(C#Cc4c(N)ncc5cc(F)ccc45)c3)cc2C(F)(F)F)CC1`, the GI50 was 3.3 µM in the assay with CAKI-1 renal; 0.595 µM with HCT-116 colon; 0.591 µM in the assay with MCF7 breast; 1.36 µM in the assay with NCI-H23 lung; 0.904 µM with NCI-H460 lung; 0.794 µM in the assay with SK-MEL-5 melanoma. Also, the GI50 was 6.3 µM in the assay on SK-OV-3 ovarian, 1.04 µM in the assay on U251 CNS and 0.975 µM in the assay on UACC-257 melanoma. Also, the TGI amounted to 10.1 µM in the assay with CAKI-1 renal; 1.26 µM in the assay with HCT-116 colon; 1.35 µM in the assay on MCF7 breast; 4.65 µM in the assay with NCI-H23 lung; 1.9 µM in the assay on NCI-H460 lung; 1.52 µM in the assay on SK-MEL-5 melanoma. Moreover, the TGI came out at 13 µM with SK-OV-3 ovarian, 2.27 µM in the assay on U251 CNS and 2.4 µM in the assay with UACC-257 melanoma.
